Reference: ChEMBL document CHEMBL1909046, “DrugMatrix in vitro pharmacology data”

Assays:
Cannabinoid receptor 1 = Cannabinoid receptor 1 (Homo sapiens, UniProt P21554); format: cell membranes, Chem-1, Membrane; settings: chem-1; further: in other assays of this panel Not Active means under 50% inhibition at 10 µM
[1] = target: C-C chemokine receptor type 5 (Homo sapiens, UniProt P51681); format: cell membranes, HEK293, Membrane; settings: hek293; further: in other assays of this panel Not Active means under 50% inhibition at 10 µM
[2] = DRUGMATRIX: GABAA, Chloride Channel, TBOB radioligand binding (ligand: [3H] TBOB); format: cell membranes, Rattus norvegicus, Wistar, Cerebral cortex, Membrane; settings: Not Active = under 50% inhibition at 10 µM
[3] = DRUGMATRIX: Glutamate, NMDA, Agonism radioligand binding (ligand: [3H] CGP-39653); format: cell membranes, Rattus norvegicus, Wistar, Cerebral cortex, Membrane; settings: Not Active = under 50% inhibition at 10 µM
[4] = target: T1, Polyunsaturated fatty acid lipoxygenase ALOX15 (Oryctolagus cuniculus, UniProt P12530); experiment: biochemical; format: tissue-based, Reticulocytes; settings: reticulocytes;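 further: inhibition of 15-lipoxygenase enzyme activity measured with linoleic acid as the substrate; in other assays of this panel Not Active means under 50% inhibition at 10 µM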
T1 sequence (P12530 whole entry): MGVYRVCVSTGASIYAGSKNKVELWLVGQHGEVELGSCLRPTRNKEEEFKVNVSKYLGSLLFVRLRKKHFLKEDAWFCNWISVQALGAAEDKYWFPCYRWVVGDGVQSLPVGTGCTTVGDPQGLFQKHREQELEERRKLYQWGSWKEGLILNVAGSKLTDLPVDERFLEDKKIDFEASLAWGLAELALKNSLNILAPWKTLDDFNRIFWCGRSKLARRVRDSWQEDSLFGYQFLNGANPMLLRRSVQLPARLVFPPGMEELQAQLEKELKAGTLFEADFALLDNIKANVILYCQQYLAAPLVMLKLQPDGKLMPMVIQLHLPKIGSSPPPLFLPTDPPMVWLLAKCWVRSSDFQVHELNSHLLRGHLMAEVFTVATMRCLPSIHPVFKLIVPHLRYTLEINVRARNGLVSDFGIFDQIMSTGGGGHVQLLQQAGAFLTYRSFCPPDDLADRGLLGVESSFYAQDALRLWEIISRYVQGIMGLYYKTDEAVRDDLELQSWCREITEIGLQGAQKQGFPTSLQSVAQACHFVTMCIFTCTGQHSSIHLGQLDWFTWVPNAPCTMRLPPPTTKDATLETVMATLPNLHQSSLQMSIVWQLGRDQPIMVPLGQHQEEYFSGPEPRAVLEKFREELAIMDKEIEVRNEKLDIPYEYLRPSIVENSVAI

[5] = target: Protein phosphatase 3 catalytic subunit alpha (Homo sapiens, UniProt Q08209); parameters: species or system Escherichia coli;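 further: inhibition of calcineurin (PP2B) enzyme activity, measured with DiFMUP as the substrate; in other assays of this panel Not Active means under 50% inhibition at 10 µM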
Cytochrome P450 1A2 = target: T2, Cytochrome P450 1A2 (Homo sapiens, UniProt P05177); settings: bti-tn-5b1-4; further: in other assays of this panel Not Active means under 50% inhibition at 10 µM
T2 sequence (P05177 whole entry): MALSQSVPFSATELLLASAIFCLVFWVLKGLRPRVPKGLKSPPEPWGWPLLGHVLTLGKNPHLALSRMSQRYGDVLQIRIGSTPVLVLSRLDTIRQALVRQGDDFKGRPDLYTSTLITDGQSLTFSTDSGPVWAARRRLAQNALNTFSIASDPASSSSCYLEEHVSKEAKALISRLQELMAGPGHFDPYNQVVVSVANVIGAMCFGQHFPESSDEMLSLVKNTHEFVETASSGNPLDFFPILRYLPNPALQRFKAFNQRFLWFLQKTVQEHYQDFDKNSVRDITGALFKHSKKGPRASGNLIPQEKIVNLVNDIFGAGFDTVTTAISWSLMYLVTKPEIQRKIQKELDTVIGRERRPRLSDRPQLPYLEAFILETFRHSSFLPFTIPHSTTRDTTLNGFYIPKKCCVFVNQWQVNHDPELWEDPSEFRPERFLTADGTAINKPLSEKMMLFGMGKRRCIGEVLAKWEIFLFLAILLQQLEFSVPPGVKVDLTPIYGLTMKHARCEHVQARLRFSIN

[6] = target: Voltage-gated inwardly rectifying potassium channel KCNH2 (Homo sapiens, UniProt Q12809); settings: hek293; further: in other assays of this panel Not Active means under 50% inhibition at 10 µM
Chain of Voltage-gated inwardly rectifying potassium channel KCNH2 (Q12809 whole entry): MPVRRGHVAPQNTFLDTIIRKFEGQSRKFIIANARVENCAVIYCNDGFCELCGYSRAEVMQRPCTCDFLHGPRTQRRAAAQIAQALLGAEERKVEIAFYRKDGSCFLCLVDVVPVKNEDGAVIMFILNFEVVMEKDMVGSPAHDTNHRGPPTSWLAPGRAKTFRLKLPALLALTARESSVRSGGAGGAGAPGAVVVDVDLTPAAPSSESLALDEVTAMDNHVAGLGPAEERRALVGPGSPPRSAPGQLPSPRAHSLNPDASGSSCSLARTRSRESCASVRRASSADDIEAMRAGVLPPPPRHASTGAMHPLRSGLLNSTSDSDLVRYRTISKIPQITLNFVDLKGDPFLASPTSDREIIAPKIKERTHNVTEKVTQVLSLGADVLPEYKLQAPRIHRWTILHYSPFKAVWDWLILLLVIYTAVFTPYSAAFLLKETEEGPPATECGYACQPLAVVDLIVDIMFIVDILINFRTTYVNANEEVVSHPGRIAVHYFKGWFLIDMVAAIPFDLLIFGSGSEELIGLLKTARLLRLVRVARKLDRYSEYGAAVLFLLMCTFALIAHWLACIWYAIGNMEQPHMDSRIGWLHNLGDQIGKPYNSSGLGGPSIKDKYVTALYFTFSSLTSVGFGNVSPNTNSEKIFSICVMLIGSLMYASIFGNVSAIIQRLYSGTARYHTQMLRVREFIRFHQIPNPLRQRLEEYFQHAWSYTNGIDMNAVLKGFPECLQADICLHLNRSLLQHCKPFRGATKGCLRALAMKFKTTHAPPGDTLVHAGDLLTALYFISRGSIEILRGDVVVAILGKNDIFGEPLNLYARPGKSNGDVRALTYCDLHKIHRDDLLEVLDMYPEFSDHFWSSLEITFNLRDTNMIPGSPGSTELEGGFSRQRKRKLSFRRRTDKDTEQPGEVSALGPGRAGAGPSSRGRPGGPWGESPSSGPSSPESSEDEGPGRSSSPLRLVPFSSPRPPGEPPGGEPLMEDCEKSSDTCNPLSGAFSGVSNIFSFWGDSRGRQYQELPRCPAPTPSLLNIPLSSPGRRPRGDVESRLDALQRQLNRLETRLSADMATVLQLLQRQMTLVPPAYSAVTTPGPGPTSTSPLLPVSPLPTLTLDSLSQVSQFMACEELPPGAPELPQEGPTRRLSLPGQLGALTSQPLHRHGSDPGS

Chain of C-C chemokine receptor type 5 (P51681 whole entry): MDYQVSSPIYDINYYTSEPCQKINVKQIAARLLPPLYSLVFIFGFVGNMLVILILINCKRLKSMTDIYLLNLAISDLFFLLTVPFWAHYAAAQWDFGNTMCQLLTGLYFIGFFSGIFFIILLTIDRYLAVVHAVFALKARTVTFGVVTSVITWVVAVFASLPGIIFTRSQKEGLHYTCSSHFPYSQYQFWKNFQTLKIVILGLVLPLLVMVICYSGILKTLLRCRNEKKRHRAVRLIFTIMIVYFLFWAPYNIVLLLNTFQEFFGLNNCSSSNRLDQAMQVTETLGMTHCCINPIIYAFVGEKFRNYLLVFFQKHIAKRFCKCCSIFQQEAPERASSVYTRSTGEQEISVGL
Chain of Cannabinoid receptor 1 (P21554 whole entry): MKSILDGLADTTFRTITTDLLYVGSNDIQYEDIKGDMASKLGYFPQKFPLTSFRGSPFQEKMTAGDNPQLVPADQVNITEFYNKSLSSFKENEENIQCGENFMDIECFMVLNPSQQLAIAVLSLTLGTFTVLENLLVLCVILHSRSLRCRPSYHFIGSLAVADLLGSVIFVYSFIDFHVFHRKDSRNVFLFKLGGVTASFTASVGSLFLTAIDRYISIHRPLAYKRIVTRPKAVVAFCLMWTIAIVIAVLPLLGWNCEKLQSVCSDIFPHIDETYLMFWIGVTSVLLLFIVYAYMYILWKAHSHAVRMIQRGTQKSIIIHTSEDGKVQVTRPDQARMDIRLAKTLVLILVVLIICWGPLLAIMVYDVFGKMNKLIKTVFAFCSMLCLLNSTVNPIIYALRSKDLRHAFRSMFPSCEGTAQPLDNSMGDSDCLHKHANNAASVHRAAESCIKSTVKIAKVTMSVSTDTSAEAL

CN(C)c1ccc(C(=C2C=CC(=[N+](C)C)C=C2)c2ccc(N(C)C)cc2)cc1.[Cl-] [GENTIAN VIOLET]
Not Active: IC50 (Cannabinoid receptor 1) | IC50 [1] | IC50 [2] | Ki [2] | IC50 [3] | Ki [3] | IC50 [4] | IC50 [5] | IC50 (Cytochrome P450 1A2) | Ki (Cytochrome P450 1A2) | IC50 [6] | Ki [6]

O=S(=O)([O-])CCS.[Na+] [MESNA]
Not Active: IC50 (Cannabinoid receptor 1) | IC50 [1] | IC50 [2] | Ki [2] | IC50 [3] | Ki [3] | IC50 [4] | IC50 [5] | IC50 (Cytochrome P450 1A2) | Ki (Cytochrome P450 1A2) | IC50 [6] | Ki [6]

O=C(O)Cc1ccccc1Nc1c(Cl)cccc1Cl [DICLOFENAC]
Not Active: IC50 (Cannabinoid receptor 1) | IC50 [1] | IC50 [2] | Ki [2] | IC50 [3] | Ki [3] | IC50 [4] | IC50 [5] | IC50 (Cytochrome P450 1A2) | Ki (Cytochrome P450 1A2) | IC50 [6] | Ki [6]

COc1ccccc1C(=O)N1CCC(Cc2ccccc2)CC1
Not Active: IC50 (Cannabinoid receptor 1) | IC50 [1] | IC50 [2] | Ki [2] | IC50 [3] | Ki [3] | IC50 [4] | IC50 [5] | IC50 (Cytochrome P450 1A2) | Ki (Cytochrome P450 1A2) | IC50 [6] | Ki [6]

CCC1=C[C@@H]2CN(C1)Cc1c([nH]c3ccccc13)[C@@](C(=O)OC)(c1cc3c(cc1OC)N(C)[C@H]1[C@@](O)(C(=O)OC)[C@H](OC(C)=O)[C@]4(CC)C=CCN5CC[C@]31[C@@H]54)C2 [VINORELBINE]
Not Active: IC50 (Cannabinoid receptor 1) | IC50 [1] | IC50 [2] | Ki [2] | IC50 [3] | Ki [3] | IC50 [4] | IC50 [5] | IC50 (Cytochrome P450 1A2) | Ki (Cytochrome P450 1A2) | IC50 [6] | Ki [6]

CCOC(=O)[C@H](CCc1ccccc1)N[C@H]1CCc2ccccc2N(CC(=O)O)C1=O [BENAZEPRIL]
Not Active: IC50 (Cannabinoid receptor 1) | IC50 [1] | IC50 [2] | Ki [2] | IC50 [3] | Ki [3] | IC50 [4] | IC50 [5] | IC50 (Cytochrome P450 1A2) | Ki (Cytochrome P450 1A2) | IC50 [6] | Ki [6]

CC(=O)Nc1c(I)c(NC(C)=O)c(I)c(C(=O)O)c1I [DIATRIZOIC ACID]
Not Active: IC50 (Cannabinoid receptor 1) | IC50 [1] | IC50 [2] | Ki [2] | IC50 [3] | Ki [3] | IC50 [4] | IC50 [5] | IC50 (Cytochrome P450 1A2) | Ki (Cytochrome P450 1A2) | IC50 [6] | Ki [6]

CCOC(=O)C1=C(C)NC(C)=C(C(=O)OC)C1c1cccc([N+](=O)[O-])c1 (configuration not stated) [NITRENDIPINE]
Not Active: IC50 (Cannabinoid receptor 1) | IC50 [1] | IC50 [2] | Ki [2] | IC50 [3] | Ki [3] | IC50 [4] | IC50 [5] | IC50 (Cytochrome P450 1A2) | Ki (Cytochrome P450 1A2) | IC50 [6] | Ki [6]

O=C1CC[C@H](N2C(=O)c3ccccc3C2=O)C(=O)N1
Not Active: IC50 (Cannabinoid receptor 1) | IC50 [1] | IC50 [2] | Ki [2] | IC50 [3] | Ki [3] | IC50 [4] | IC50 [5] | IC50 (Cytochrome P450 1A2) | Ki (Cytochrome P450 1A2) | IC50 [6] | Ki [6]

CC(C)Cc1ccc(C(C)C(=O)O)cc1 (configuration not stated) [IBUPROFEN]
Not Active: IC50 (Cannabinoid receptor 1) | IC50 [1] | IC50 [2] | Ki [2] | IC50 [3] | Ki [3] | IC50 [4] | IC50 [5] | IC50 (Cytochrome P450 1A2) | Ki (Cytochrome P450 1A2) | IC50 [6] | Ki [6]

CCCCN1CCCCC1C(=O)Nc1c(C)cccc1C.Cl (configuration not stated) [BUPIVACAINE HYDROCHLORIDE]
Not Active: IC50 (Cannabinoid receptor 1) | IC50 [1] | IC50 [2] | Ki [2] | IC50 [3] | Ki [3] | IC50 [4] | IC50 [5] | IC50 (Cytochrome P450 1A2) | Ki (Cytochrome P450 1A2) | IC50 [6] | Ki [6]
